Assay results as given in patent US20250188422A1, “INDUCED TOTIPOTENT POTENTIAL STEM CELLS, METHODS OF MAKING AND USING” (Peking University, priority 2022, published 2025).

How the values were obtained:
[1] = system: Zscan4-Emerald GFP and MERVL-tdTomato reporter expression in mouse EPS cells; experiment: Screen with Zscan4-Emerald GFP and MERVL-tdTomato reporter EPS cells; type: cell-based; details: for effect with CD1530 in inducing totipotent markers: combined with CD1530, EPS reporter cells, day 3
Protocol: Cells were gently digested into single cells using 0.05% trypsin-EDTA. Suspensions were filtered through a 40 µm cell strainer. Then, the samples were analyzed on CytoFLEX (Beckman Coulter). Data analysis was performed using CytExpert software.
To identify small molecules that can induce totipotent features in mouse EPS cells, we used cell lines carrying a MERVL-TdTomato or a Zscan4-Emerald GFP reporter. As the positive control, Dux overexpression was performed in these reporter cells (FIG. 6a-c). N2B27 medium was used for screening and Wnt signaling agonist CHIR 99021 was also added for promoting cell proliferation. In the primary screen, we focused on identifying small molecules that can increase the percentage of Zscan4-Emerald GFP+ cells, and identified more than 50 primary hits. These candidates were further evaluated using MERVL-tdTomato reporter cells and small molecules that can also induce MERVL-tdTomato were selected out for further determining their optimal dosage in activating Zscan4-Emerald and MERVL-tdTomato expression without inducing significant toxicity. […] Therefore, CHIR 99021 was included in the chemical cocktail.

[2] = system: EPS cells during TPS conversion; experiment: Cell proliferation during conversion of EPS cells to TPS cells; type: cell-based, mouse; details: CHIR 99021 omitted from the cocktail during the conversion
Protocol: Mouse EPS cells and ES cells cultured in N2B27-LCDM medium or N2B27-2i/LIF medium for two days were used for TPS generation. Mouse EPS cells and ES cells were washed with DMEM/F12, then 0.05% trypsin-EDTA (Gibco, 25300-062) was added and incubated for 3 min, then DMEM (Gibco, 11965092) supplemented with 10% FBS (Hyclone, SH30070.03) was added. The cells were pipetted up and down several times into single cells. Cells were centrifuged and re-suspended in 4S medium contained N2B27 which promoted cell proliferation or RPMI Medium 1640 basic (Gibco, 22400-089) which enhanced totipotent molecular features supplemented with 5% knockout serum replacement (Gibco, 10828-028), 0.2% sodium pyruvate (Gibco, 11360-070), 0.14% sodium DL-lactate solution (Sigma, L7900) and 0.1% Chemically Defined Lipid Concentrate (Gibco, 11905-031), VPA (50 μM; Selleck, S3944), CHIR-99021, EPZ004777 (1 μM, Selleck, S7353) and CD1530 ([…]-0.5 μM; Tocris, 2554). […]
To identify small molecules that can induce totipotent features in mouse EPS cells, we used cell lines carrying a MERVL-TdTomato or a Zscan4-Emerald GFP reporter. […] These candidates were further evaluated using MERVL-tdTomato reporter cells and small molecules that can also induce MERVL-tdTomato were selected out for further determining their optimal dosage in activating Zscan4-Emerald and MERVL-tdTomato expression without inducing significant toxicity. […]

[3] = system: 8-cell ICR diploid mouse embryos; experiment: Chimeric assay of single-cell microinjection into 8-cell embryos; type: in vivo; details: omission of CHIR 99021
Protocol: Cells were digested by 0.05% trypsin-EDTA, and the digested cells were filtered through a 40 µm cell strainer, centrifuged at 1,200-1,500 rpm for 3 min at room temperature. Supernatant were removed and cells were suspended using culture medium with the addition of Y-27632 (10 μM; Tocris, 1254), and placed on the ice before injection. After being placed on ice, the digested cells should be injected in 1 h, otherwise, another batch of cells were digested for the remaining injections.
Single cells were microinjected into 8-cell ICR diploid mouse embryos. The injected embryos were cultured in the culture medium with Y-27632 (10 μM; Tocris, 1254) for the first 4 h. For the generation of chimeric blastocysts, the embryos were transferred into the KSOM medium (Merck, MR-106-D). For the generation of single-cell derived in vivo chimeric conceptuses, chimeric embryos were cultured into KSOM medium with Y-27632 (10 μM; Tocris, 1254) addition in a humidified incubator under 5% CO2 at 37° C. overnight. Injected embryos were transferred to uterine horns of 0.5 post coitum pseudo-pregnant females. Fetal tissues, yolk sacs, placentas were dissected from conceptuses at E7.5, E10.5, E13.5 or E17.5 developmental stages.

TPS cells = experiment: Culture of TPS cells without CHIR 99021; type: cell-based, mouse
Protocol: All cell lines were cultured under 20% 02 and 5% C02 at 37° C. Mouse TPS cells were cultured in 4S medium contained N2B27 basal medium [50% DMEM/F12 (Gibco, 11330-032), 50% Neurobasal (Gibco, 21103-049), 0.5% N2 supplement (Gibco, 17502-048), 1% B27 supplement (Gibco, 12587-010), 1% GlutaMAX (Gibco, 35050-061), 1% nonessential amino acids (Gibco, 11140-050)] which promoted cell proliferation, or 1640 basal medium [RPMI Medium 1640 basic (Gibco, 22400-089), 0.5% N2 supplement (Gibco, 17502-048), 1% B27 supplement (Gibco, 12587-010), 1% GlutaMAX (Gibco, 35050-061), 1% nonessential amino acids (Gibco, 11140-050)] which enhanced totipotent molecular features, supplemented with 5% knockout serum replacement (Gibco, 10828-028), 0.2% sodium pyruvate (Gibco, 11360-070), 0.14% sodium DL-lactate solution (Sigma, L7900) and 0.1% Chemically Defined Lipid Concentrate (Gibco, 11905-031), VPA (50 μM; Selleck, S3944), CHIR-99021 (3 μM; Selleck, S1263), EPZ004777 (1 μM, Selleck, S7353) and CD1530 ([…]-0.5 μM; Tocris, 2554). Mouse TPS cells were cultured on mitomycin C inactivated mouse embryonic fibroblast cells (feeders, 3*10^4 cells per cm^2). The culture medium was changed every day. TPS cells were passaged every three days with 0.05% trypsin-EDTA (Gibco, 25300-062) and seeded at a split ratio ranging from 1:3 to 1:10. To generate TPS cells, EPS cells or ES cells were dissociated and cultured on feeders in 4S medium for the first three passages, EPS cells or ES cells need to seed at a lower split ratio 1:3 to improve cell viability. After five passages, TPS cells were generated for further experiments.
The total RNAs were isolated using the Direct-zol RNA Kits (ZYMO Research, R2052). RNA was converted to cDNA using TransScript FirstStrand cDNA Synthesis SuperMix (TransGen Biotech, AT311). Quantitative PCR analysis was conducted using the KAPA SYBR FAST qPCR Kit (KAPA Biosystems, KK4601) with the Bio RAD CFX Connect Real-Time System. The data were analyzed using the delta-delta CT method.
Next, we sought to analyze the role of CHIR 99021 in the induction and maintenance of TPS cells. […]

For O=C(O)c1ccc(-c2ccc3cc(O)c(C45CC6CC(CC(C6)C4)C5)cc3c2)cc1 [CD1530], the “inducing Zscan4-GFP and MERVL-tdTomato expression” value ([1]; EPS reporter cells, N2B27 medium with CHIR 99021, after titration, compared with other screening hits) was “most effective”.
With Cc1c[nH]c(-c2cnc(NCCNc3ccc(C#N)cn3)nc2-c2ccc(Cl)cc2Cl)n1 [CHIR 99021] the cell proliferation [2] was “greatly reduced”, the “in vivo chimeric of TPS cells” value [3] was “greatly reduce” and the “requirement for the proliferation of TPS cells” value (TPS cells; omission of CHIR 99021, after further passaging) was “not required”. The “expression of totipotent marker genes in TPS cells” value (TPS cells; omission of CHIR 99021, after long-term culturing) was “not affected” and the “proliferation of TPS cells” value (TPS cells; omission of CHIR 99021, first few passages (about 3-5 passages)) was “reduced proliferation”.
In the case of CC(C)N(CCCNC(=O)Nc1ccc(C(C)(C)C)cc1)C[C@H]1O[C@@H](n2ccc3c(N)ncnc32)[C@H](O)[C@@H]1O [EPZ004777], the “effect with CD1530 in inducing totipotent markers” value [1] is reported as “synergistic effect”.
For CCCC(CCC)C(=O)O [VPA], the “effect with CD1530 in inducing totipotent markers” value [1] was “synergistic effect”.
